Measured values taken from patent EP0145493A2, “11-Difluoromethyl and 11-fluoromethylene steroids” (THE UPJOHN COMPANY, priority 1983, dated 1985).

Molecular target: T1, progesterone receptor (Oryctolagus cuniculus, UniProt P06186)
T1 construct: 'Rabbit, progesterone = 100%; from tissue; host or cells: Rabbit; From own knowledge, the cited Philibert procedure uses uterine cytosol
T1 sequence (P06186 1-930): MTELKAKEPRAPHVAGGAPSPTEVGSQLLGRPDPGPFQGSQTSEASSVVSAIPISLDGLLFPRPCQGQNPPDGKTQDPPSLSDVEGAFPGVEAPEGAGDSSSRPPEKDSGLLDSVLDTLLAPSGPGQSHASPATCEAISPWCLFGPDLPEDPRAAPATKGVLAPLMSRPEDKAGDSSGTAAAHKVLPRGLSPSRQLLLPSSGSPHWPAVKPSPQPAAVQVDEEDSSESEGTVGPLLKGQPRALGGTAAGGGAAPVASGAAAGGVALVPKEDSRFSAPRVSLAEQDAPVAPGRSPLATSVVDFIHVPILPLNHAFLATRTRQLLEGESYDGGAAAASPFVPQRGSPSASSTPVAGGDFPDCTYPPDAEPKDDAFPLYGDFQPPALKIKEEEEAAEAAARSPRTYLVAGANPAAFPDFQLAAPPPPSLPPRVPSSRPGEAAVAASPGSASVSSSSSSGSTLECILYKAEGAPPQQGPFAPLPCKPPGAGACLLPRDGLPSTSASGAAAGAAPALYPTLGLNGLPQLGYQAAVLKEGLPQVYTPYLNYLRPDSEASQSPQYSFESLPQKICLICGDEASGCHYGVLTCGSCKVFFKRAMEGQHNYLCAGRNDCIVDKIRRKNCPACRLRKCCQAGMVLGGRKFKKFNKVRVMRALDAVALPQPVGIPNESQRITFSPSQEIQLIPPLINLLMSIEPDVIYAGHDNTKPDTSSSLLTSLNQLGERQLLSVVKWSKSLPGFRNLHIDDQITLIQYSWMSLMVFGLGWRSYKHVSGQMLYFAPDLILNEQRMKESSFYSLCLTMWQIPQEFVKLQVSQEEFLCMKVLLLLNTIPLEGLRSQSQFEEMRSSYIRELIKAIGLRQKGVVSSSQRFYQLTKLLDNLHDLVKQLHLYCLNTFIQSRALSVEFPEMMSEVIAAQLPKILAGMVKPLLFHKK
Assay: progesterone receptor relative binding affinity (procedure of Philibert et al.)
Conditions: Rabbit, progesterone = 100%
From the text: Biological information in the form of progesterone receptor relative binding affinity data determined according to the procedure of D. Philibert et al, Endocrinology 101, 1850 (1977) set forth in TABLE 1 discloses the 11β-difluoromethyl and (E)-11-fluoromethylene steroids to be useful as progestins.
'Rabbit, progesterone = 100%

SMILES | Relative Binding Affinity' (%)
C#C[C@]1(O)CC[C@H]2[C@H]3[C@H](/C(=C/F)C[C@@]21C)[C@H]1CCC(=O)C=C1C[C@H]3C [17α-Ethynyl-(E)-11-fluoromethylene-17β-hydroxy-7α-methylestr-4-en-3-one] | 34
C[C@]12C[C@H](C(F)F)[C@H]3[C@@H](CCC4=CC(=O)CC[C@@H]43)[C@@H]1CC[C@@H]2O [11β-Difluoromethyl-17β-hydroxyestr-4-en-3-one] | 13
C#C[C@]1(O)CC[C@H]2[C@@H]3CCC4=CC(=O)CC[C@@H]4[C@H]3/C(=C/F)C[C@@]21C [17α-Ethynyl-(E)-11-fluoromethylene-17β-hydroxyestr-4-en-3-one] | 74
CC#CC1(OC)CCC2C3CCC4=CC(=O)CCC4C3C(=CF)CC21C (stereo not drawn) [(E)-11-Fluoromethylene-17β-hydroxy-17α-propynylestr-4-en-3-one 17-methyl ether] | 71
C#C[C@]1(O)CC[C@H]2[C@H]3[C@H]([C@@H](C(F)F)C[C@@]21C)[C@H]1CCC(=O)C=C1C[C@H]3C [17α-Ethynyl-11β-difluoromethyl-17β-hydroxy-7α-methylestr-4-en-3-one] | 63
CC#C[C@]1(O)CC[C@H]2[C@@H]3CCC4=CCCC[C@@H]4[C@H]3[C@@H](C(F)F)C[C@@]21C [11β-Difluoromethyl-17β-hydroxy-17α-propynylestr-4-ene] | 3
C#CC1(OC)CCC2C3CCC4=CC(=O)CCC4C3C(C(F)F)CC21C (stereo not drawn) [17α-Ethynyl-11β-difluoromethyl-17β-hydroxyestr-4-en-3-one 17-methyl ether] | 145
CO[C@H]1CC[C@H]2[C@@H]3CCC4=CC(=O)CC[C@@H]4[C@H]3[C@@H](C(F)F)C[C@]12C [11β-Difluoromethyl-17β-hydroxyestr-4-en-3-one 17-methyl ether] | 66
CC#CC1(OC)CCC2C3CCC4=CC(=O)CCC4C3C(C(F)F)CC21C (stereo not drawn) [11β-Difluoromethyl-17β-hydroxy-17α-propynylestr-4-en-3-one 17-methyl ether] | 90
C#C[C@]1(O)CC[C@H]2[C@@H]3CCC4=CC(=O)CC[C@@H]4[C@H]3/C(=C/F)C[C@@]21CC [13β-Ethyl-17α-ethynyl-(E)-11-fluoromethylene-17β-hydroxygon-4-en-3-one] | 100
CC#C[C@]1(O)CC[C@H]2[C@@H]3CCC4=CC(=O)CC[C@@H]4[C@H]3/C(=C\F)C[C@@]21CC [13β-Ethyl-(Z)-11-fluoromethylene-17β-hydroxy-17α-propynylgon-4-en-3-one] | 149
CC#C[C@]1(O)CC[C@H]2[C@@H]3CCC4=CC(=O)CC[C@@H]4[C@H]3/C(=C\F)C[C@@]21C [(Z)-11-Fluoromethylene-17β-hydroxy-17-propynylestr-4-en-3-one] | 150
C#CC1(O)CCC2C3CCC4=CC5(CCC4C3C(C(F)F)CC21C)SCCS5 (stereo not drawn) [17α-Ethynyl-11β-difluoromethyl-17β-hydroxyestr-4-ene-3-one 3-ethanedithiol ketal] | 92
CC#C[C@]1(O)CC[C@H]2[C@@H]3CCC4=CC(=O)CC[C@@H]4[C@H]3[C@@H](C(F)F)C[C@@]21C [11β-Difluoromethyl-17β-hydroxy-17α-propynylestr-4-en-3-one] | 68
CC#C[C@]1(O)CC[C@H]2[C@@H]3CCC4=CC(=O)CC[C@@H]4[C@H]3/C(=C/F)C[C@@]21CC [13β-Ethyl-(E)-11-fluoromethylene-17β-hydroxy-17α-propynylgon-4-en-3-one] | 63
CC#CC1(OC(C)=O)CCC2C3CCC4=CC(=O)CCC4C3C(C(F)F)CC21C (stereo not drawn) [11β-Difluoromethyl-17β-hydroxy-17α-propynylestr-4-en-3-one 17-acetate] | 49
C#C[C@]1(O)CC[C@H]2[C@@H]3CCC4=CCCC[C@@H]4[C@H]3[C@@H](C(F)F)C[C@@]21C [17α-Ethynyl-11β-difluoromethyl-17β-hydroxyestr-4-ene] | 2
CC#C[C@]1(O)CC[C@H]2[C@H]3[C@H](/C(=C/F)C[C@@]21C)[C@H]1CCC(=O)C=C1C[C@H]3C [(E)-11-Fluoromethylene-17β-hydroxy-7α-methyl-17α-propynylestr-4-en-3-one] | 58
CC#C[C@]1(O)CC[C@H]2[C@@H]3CCC4=CC(=O)CC[C@@H]4[C@H]3/C(=C/F)C[C@@]21C [(E)-11-fluoromethylene-17β-hydroxy-17α-propynylestr-4-ene-3-one] | 18
CC#C[C@]1(O)CC[C@H]2[C@@H]3CCC4C=CCC[C@@H]4[C@H]3[C@@H](C(F)F)C[C@@]21C (stereo partly drawn) [11β-Difluoromethyl-17β-hydroxy-17α-propynylestr-3-ene] | 2
C#CC1(OC(C)=O)CCC2C3CCC4=CC(=O)CCC4C3C(C(F)F)CC21C (stereo not drawn) [17α-Ethynyl-11β-difluoromethyl-17β-hydroxyestr-4-en-3-one 17-acetate] | 50
C#C[C@]1(O)CC[C@H]2[C@@H]3CCC4=CC(=O)CC[C@@H]4[C@H]3/C(=C\F)C[C@@]21C [17α-Ethynyl-(Z)-11-fluoromethylene-17β-hydroxyestr-4-en-3-one] | 149
CC#C[C@]1(O)CC[C@H]2[C@H]3[C@H]([C@@H](C(F)F)C[C@@]21C)[C@H]1CCC(=O)C=C1C[C@H]3C [11β-Difluoromethyl-17β-hydroxy-7α-methyl-17α-propynylestr-4-en-3-one] | 41
